In patent publication US5763483A, “Carbocyclic compounds” (priority 1996, dated 1998) one finds IC50 data, which are given here for three compounds.

For orientation: IC50 means the concentration at which inhibition is half-maximal.

This test addresses neuraminidase. Put plainly: Enzyme Inhibition (in vitro neuraminidase screen). It counts as biochemical. The text has this:
Compositions of the invention are screened for inhibitory activity against neuraminidase by any of the conventional techniques for evaluating enzyme activity. Within the context of the invention, typically compositions are first screened for inhibition of neuraminidase in vitro and compositions showing inhibitory activity are then screened for activity in vivo. Compositions having in vitro Ki (inhibitory constants) of less then about 5×10^-6 M, typically less than about 1×10^-7 M and preferably less than about 5×10^-8 M are preferred for in vivo use.
Useful in vitro screens have been described in detail and will not be elaborated here. However, Itzstein, M. von et al.; "Nature", 363(6428):418-423 (1993), in particular page 420, column 2, full paragraph 3, to page 421, column 2, first partial paragraph, describes a suitable in vitro assay of Potier, M.; et al.; "Analyt. Biochem.", 94:287-296 (1979), as modified by Chong, A. K. J.; et al.; "Biochem. Biophys. Acta", 1077:65-71 (1991); and Colman, P. M.; et al.; International Publication No. WO 92/06691 (Int. App. No. PCT/AU90/00501, publication date Apr. 30, 1992) page 34, line 13, to page 35, line 16, describes another useful in vitro screen.
Enzyme Inhibition: Using the methods of screening in vitro activity described above, the following activities were observed (+10-100 μm, ++1-10 μm, +++<1.0 μm): […]

`CC(=O)N[C@@H]1[C@@H](N)CC(C(=O)O)=C[C@H]1OCC(O)CO` (stereo partly drawn) [Compound 8] yielded an IC50 of 1000 to 10000 nM.

Consider `COCO[C@@H]1C=C(C(=O)O)C[C@H](N)[C@H]1NC(C)=O` [Compound 114], for which the IC50 fell in the range of 1000 to 10000 nM.

`CC(=O)N[C@H]1[C@H](O)C=C(C(=O)O)C[C@@H]1NC(=N)N` [Compound 94] gave an IC50 below 1000 nM.
